According to patent US20240200091A1, “USE OF PROTOPORPHYRINOGEN OXIDASE” (BEIJING DABEINONG BIOTECHNOLOGY CO., LTD., priority 2021, published 2024):

B1: PPO8A: nucleotide sequence encoding microbial protoporphyrinogen oxidase PPO8 (SEQ ID NO:8), Arabidopsis thaliana/soybean common codon usage bias (nucleic acid)
DNA: ATGTCAAATGAGACACAAGCCAAACAAGCTGAAACGAAACAGACTGAGTCTTCTGTCGTAAGCAAAACGCTGGTGTTGTACTCGTCCGTCGATGGTCAAACCTTAAAGATCATTAATCGTATTAAGCAGACCCTGACAGGAGAAGTTATTGTTTTGAATGTTGATGATAATCCAACTATCGATTTTAGCCTTTATCAGAAGGTCTTGATTGGAGCATCAATCCGGTATGGGAACTTTAGACCGAACATCATAAAGTTTGTTAATCAGCATAAAACACAACTTGACGCGGTGTGCAACGCTTTCTTCGTGGTTTGTCTCACAGCAAGAAAACCAGAGAAAGCTGTTCCTGAAAACAATGCATACATGAAGAAATTTGATCAGCTAAGTCAATGGCAACCTCAGTTCAAGGGAGTATTCGCGGGTGCTTTATTGTATTCACGATACAACTGGTGGCAGACACTTCTCATACAACTAATAATGAAGATGACTGGTGGCAGTACTGACAAAACTCAAGATATTGAGCTTACCGATTGGGAAAAGGTGGATTCTTTCGCACAAGACTTTGCTGCCAGGTGA
modifications: The nucleotide sequence of PPO8A

Key:
Format in all cases: in vivo
[1] = system: Arabidopsis thaliana T1 plants; assay: flumioxazin tolerance of transgenic Arabidopsis thaliana T1 plants (spray, grade of pesticide damage); details: for The grade of pesticide damage/plant: grade 0 / The grade of pesticide damage/plant: grade 1 / The grade of pesticide damage/plant: grade 2 / The grade of pesticide damage/plant: grade 3: 7 DAT, number of plants of 24 per genotype, grades
Excerpt: (§1) The transformed Arabidopsis thaliana T1 plants were initially selected using glufosinate herbicide. The Arabidopsis thaliana T1 plants (PPO1A) into which the PPO1A nucleotide sequence was introduced, the Arabidopsis thaliana T1 plants (PPO2A) into which the PPO2A nucleotide sequence was introduced, the Arabidopsis thaliana T1 plants (PPO3A) into which the PPO3A nucleotide sequence was introduced, the Arabidopsis thaliana T1 plants (PPO4A) into which the PPO4A nucleotide sequence was introduced, the Arabidopsis thaliana T1 plants (PPO5A) into which the PPO5A nucleotide sequence was introduced, the Arabidopsis thaliana T1 plants (PPO6A) into which the PPO6A nucleotide sequence was introduced, the Arabidopsis thaliana T1 plants (PPO7A) into which the PPO7A nucleotide sequence was introduced, the Arabidopsis thaliana T1 plants (PPO8A) into which the PPO8A nucleotide sequence was introduced, the Arabidopsis thaliana T1 plants (PPO9A) into which the PPO9A nucleotide sequence was introduced, the Arabidopsis thaliana T1 plants (PPO10A) into which the […] nucleotide sequence was introduced, the Arabidopsis thaliana T1 plants (PPO11A) into which the PPO11A nucleotide sequence was introduced, the Arabidopsis thaliana T1 plants (PPO12A) into which the PPO12A nucleotide sequence was introduced, the Arabidopsis thaliana T1 plants (PPO13A) into which the PPO13A nucleotide sequence was introduced, the Arabidopsis thaliana T1 plants (PPO14A) into which the PPO14A nucleotide sequence was introduced, the Arabidopsis thaliana T1 plants (PPO-ATA) into which the PPO-ATA nucleotide sequence was introduced, the Arabidopsis thaliana T1 plants (PPO-APA) into which the PPO-APA nucleotide sequence was introduced, the Arabidopsis thaliana T1 plants (control vector) into which the control vector was introduced, and the wild-type Arabidopsis thaliana plants (CK) (with 24 plants being included in each genotype) (18 days after sowing) were sprayed with oxyfluorfen at three concentrations (180 g ai/ha (one-fold field concentration, 1×), 720 g ai/ha (four-fold field concentration, 4×), and 0 g ai/ha (water, 0×)), saflufenacil at three concentrations (25 g ai/ha (one-fold field concentration, 1×), 100 g ai/ha (four-fold field concentration, 4×), and 0 g ai/ha (water, 0×)), flumioxazin at three concentrations (60 g ai/ha (one-fold field concentration, 1×), 240 g ai/ha (four-fold field concentration, 4×), and 0 g ai/ha (water, 0×), and sulfentrazone at three concentrations (450 g ai/ha (one-fold field concentration, 1×), 900 g ai/ha (two-fold field concentration, 2×), and 0 g ai/ha (water, 0×) to determine the tolerance of Arabidopsis thaliana to the herbicides. After 7 days of spraying (7 DAT), the damage level of each plant caused by the herbicide was evaluated according to the average of the damage levels (%) of plants (the average of the damage levels (%) of plants=the injured leaf area/the total leaf area×[…]), i.e., the grade of pesticide damage: grade 0 means that the growth status of plants is essentially consistent with those sprayed with the blank solvent (water); grade 1 means that the average of the damage levels of plants is less than 10%; grade 2 means that the average of the damage levels of plants is greater than […]; and grade 3 means that the average of the damage levels of plants is 100%. The plants having a growth status falling within grades 0 and 1 are classified as highly resistant plants; those having a growth status falling within grade 2 are classified as poorly resistant plants; and those having a growth status falling within grade 3 are classified as non-resistant plants.

[2] = system: Arabidopsis thaliana T1 plants; assay: oxyfluorfen tolerance of transgenic Arabidopsis thaliana T1 plants (spray, grade of pesticide damage); details: for The grade of pesticide damage/plant: grade 0 / The grade of pesticide damage/plant: grade 1 / The grade of pesticide damage/plant: grade 2 / The grade of pesticide damage/plant: grade 3: 7 DAT, number of plants of 24 per genotype, grades
Excerpt: as §1

[3] = system: Arabidopsis thaliana T1 plants; assay: saflufenacil tolerance of transgenic Arabidopsis thaliana T1 plants (spray, grade of pesticide damage); details: for The grade of pesticide damage/plant: grade 0 / The grade of pesticide damage/plant: grade 1 / The grade of pesticide damage/plant: grade 2 / The grade of pesticide damage/plant: grade 3: 7 DAT, number of plants of 24 per genotype, grades
Excerpt: as §1

[4] = system: Arabidopsis thaliana T1 plants; assay: sulfentrazone tolerance of transgenic Arabidopsis thaliana T1 plants (spray, grade of pesticide damage); details: for The grade of pesticide: grade 0 / The grade of pesticide: grade 1 / The grade of pesticide: grade 2 / The grade of pesticide: grade 3: 7 DAT, number of plants of 24 per genotype, grades
Excerpt: as §1

[5] = saflufenacil at four-fold field concentration, of 24 plants

Row | Molecule | The grade of pesticide: grade 0 ([4]; sulfentrazone 450 g ai/ha (1×)) | The grade of pesticide: grade 1 ([4]; sulfentrazone 450 g ai/ha (1×)) | The grade of pesticide: grade 2 ([4]; sulfentrazone 450 g ai/ha (1×)) | The grade of pesticide: grade 3 ([4]; sulfentrazone 450 g ai/ha (1×)) | The grade of pesticide: grade 0 ([4]; sulfentrazone 900 g ai/ha (2×)) | The grade of pesticide: grade 1 ([4]; sulfentrazone 900 g ai/ha (2×)) | The grade of pesticide: grade 2 ([4]; sulfentrazone 900 g ai/ha (2×)) | The grade of pesticide: grade 3 ([4]; sulfentrazone 900 g ai/ha (2×)) | The grade of pesticide damage/plant: grade 0 ([1]; flumioxazin 60 g ai/ha (1×)) [plant] | The grade of pesticide damage/plant: grade 1 ([1]; flumioxazin 60 g ai/ha (1×)) [plant] | The grade of pesticide damage/plant: grade 2 ([1]; flumioxazin 60 g ai/ha (1×)) [plant] | The grade of pesticide damage/plant: grade 3 ([1]; flumioxazin 60 g ai/ha (1×)) [plant] | The grade of pesticide damage/plant: grade 0 ([1]; flumioxazin 240 g ai/ha (4×)) [plant] | The grade of pesticide damage/plant: grade 1 ([1]; flumioxazin 240 g ai/ha (4×)) [plant] | The grade of pesticide damage/plant: grade 2 ([1]; flumioxazin 240 g ai/ha (4×)) [plant] | The grade of pesticide damage/plant: grade 3 ([1]; flumioxazin 240 g ai/ha (4×)) [plant] | The grade of pesticide damage/plant: grade 0 ([2]; oxyfluorfen 180 g ai/ha (1×)) [plant] | The grade of pesticide damage/plant: grade 1 ([2]; oxyfluorfen 180 g ai/ha (1×)) [plant] | The grade of pesticide damage/plant: grade 2 ([2]; oxyfluorfen 180 g ai/ha (1×)) [plant] | The grade of pesticide damage/plant: grade 3 ([2]; oxyfluorfen 180 g ai/ha (1×)) [plant] | also measured
1 | C#CCN1C(=O)COc2cc(F)c(N3C(=O)C4=C(CCCC4)C3=O)cc21 [flumioxazin, 2-[7-fluoro-3,4-dihydro-3-oxo-4-(2-propynyl)-2H-1,4-benzoxazin-6-yl]-4,5,6,7-tetrahydro-1H-isoindole-1,3(2H)-dione, reference compound] | – | – | – | – | – | – | – | – | – | – | – | – | – | – | – | – | – | – | – | – | effective dose distinguishing sensitive plants from plants having an average level of resistance ([1]; for Arabidopsis thaliana, flumioxazin herbicide): 60 g ai/ha
2 | CCOc1cc(Oc2ccc(C(F)(F)F)cc2Cl)ccc1[N+](=O)[O-] [oxyfluorfen, 2-chloro-1-(3-ethoxy-4-nitrophenoxy)-4-trifluoromethylbenzene, reference compound] | – | – | – | – | – | – | – | – | – | – | – | – | – | – | – | – | – | – | – | – | effective dose distinguishing sensitive plants from plants having an average level of resistance ([2]; for Arabidopsis thaliana, oxyfluorfen herbicide): 180 g ai/ha
3 | CC(C)N(C)S(=O)(=O)NC(=O)c1cc(-n2c(=O)cc(C(F)(F)F)n(C)c2=O)c(F)cc1Cl [saflufenacil, N′-[2-chloro-4-fluoro-5-(3-methyl-2,6-dioxo-4-(trifluoromethyl)-3,6-dihydro-1(2H)-pyrimidine)benzoyl]-N-isopropyl-N-methylsulfamide, reference compound] | – | – | – | – | – | – | – | – | – | – | – | – | – | – | – | – | – | – | – | – | effective dose distinguishing sensitive plants from plants having an average level of resistance ([3]; for Arabidopsis thaliana, saflufenacil herbicide): 25 g ai/ha
4 | Cc1nn(-c2cc(NS(C)(=O)=O)c(Cl)cc2Cl)c(=O)n1C(F)F [sulfentrazone, N-(2,4-dichloro-5-(4-difluoromethyl-4,5-dihydro-3-methyl-5-oxo-1H-1,2,4-triazole-1-yl)phenyl)methanesulfonamide, reference compound] | – | – | – | – | – | – | – | – | – | – | – | – | – | – | – | – | – | – | – | – | effective dose distinguishing sensitive plants from plants having an average level of resistance ([4]; for Arabidopsis thaliana, sulfentrazone herbicide): 450 g ai/ha
5 | PPO-ATA: nucleotide sequence encoding Arabidopsis protoporphyrinogen oxidase PPO-AT (SEQ ID NO:46), Arabidopsis thaliana/soybean common codon usage bias [reference compound] | 0 | 0 | 0 | 24 | 0 | 0 | 0 | 24 | 0 | 0 | 2 | 22 | 0 | 0 | 0 | 24 | 0 | 0 | 8 | 16 | tolerance to sulfentrazone ([4]; sulfentrazone at different concentrations (450 and 900 g ai/ha)): no tolerance; tolerance to flumioxazin ([1]; flumioxazin at different concentrations (60 and 240 g ai/ha)): basically no tolerance; The grade of pesticide damage/plant: grade 0 ([2]; oxyfluorfen 720 g ai/ha (4×)): 0 plant; The grade of pesticide damage/plant: grade 1 ([2]; oxyfluorfen 720 g ai/ha (4×)): 0 plant; The grade of pesticide damage/plant: grade 2 ([2]; oxyfluorfen 720 g ai/ha (4×)): 0 plant; The grade of pesticide damage/plant: grade 3 ([2]; oxyfluorfen 720 g ai/ha (4×)): 24 plant; tolerance to oxyfluorfen ([2]; oxyfluorfen at different concentrations (180 and 720 g ai/ha), compared with the control vector and CK): basically no tolerance; The grade of pesticide damage/plant: grade 0 ([3]; saflufenacil 25 g ai/ha (1×)): 0 plant; The grade of pesticide damage/plant: grade 1 ([3]; saflufenacil 25 g ai/ha (1×)): 0 plant; The grade of pesticide damage/plant: grade 2 ([3]; saflufenacil 25 g ai/ha (1×)): 0 plant; The grade of pesticide damage/plant: grade 3 ([3]; saflufenacil 25 g ai/ha (1×)): 24 plant; The grade of pesticide damage/plant: grade 0 ([3]; saflufenacil 100 g ai/ha (4×)): 0 plant; The grade of pesticide damage/plant: grade 1 ([3]; saflufenacil 100 g ai/ha (4×)): 0 plant; The grade of pesticide damage/plant: grade 2 ([3]; saflufenacil 100 g ai/ha (4×)): 0 plant; The grade of pesticide damage/plant: grade 3 ([3]; saflufenacil 100 g ai/ha (4×)): 24 plant; tolerance to saflufenacil ([3]; saflufenacil at four-fold field concentration (100 g ai/ha)): no tolerance; tolerance to saflufenacil ([3]; saflufenacil at one-fold field concentration (25 g ai/ha)): no tolerance
6 | B1 | 24 | 0 | 0 | 0 | 22 | 2 | 0 | 0 | 24 | 0 | 0 | 0 | 23 | 1 | 0 | 0 | 24 | 0 | 0 | 0 | The grade of pesticide damage/plant: grade 0 ([2]; oxyfluorfen 720 g ai/ha (4×)): 20 plant; The grade of pesticide damage/plant: grade 1 ([2]; oxyfluorfen 720 g ai/ha (4×)): 4 plant; The grade of pesticide damage/plant: grade 2 ([2]; oxyfluorfen 720 g ai/ha (4×)): 0 plant; The grade of pesticide damage/plant: grade 3 ([2]; oxyfluorfen 720 g ai/ha (4×)): 0 plant; The grade of pesticide damage/plant: grade 0 ([3]; saflufenacil 25 g ai/ha (1×)): 24 plant; The grade of pesticide damage/plant: grade 1 ([3]; saflufenacil 25 g ai/ha (1×)): 0 plant; The grade of pesticide damage/plant: grade 2 ([3]; saflufenacil 25 g ai/ha (1×)): 0 plant; The grade of pesticide damage/plant: grade 3 ([3]; saflufenacil 25 g ai/ha (1×)): 0 plant; The grade of pesticide damage/plant: grade 0 ([3]; saflufenacil 100 g ai/ha (4×)): 8 plant; The grade of pesticide damage/plant: grade 1 ([3]; saflufenacil 100 g ai/ha (4×)): 14 plant; The grade of pesticide damage/plant: grade 2 ([3]; saflufenacil 100 g ai/ha (4×)): 2 plant; The grade of pesticide damage/plant: grade 3 ([3]; saflufenacil 100 g ai/ha (4×)): 0 plant; plants that exhibited high-resistant tolerance [3, 5]: 22 plants; plants that exhibited moderate- or poor-resistant tolerance [3, 5]: 2 plants
